System: NCAPG2 pT1010
Test: NCAPG2 pT1010-specific antibody reactivity after phosphorylase inhibitor treatment of nocodazole-treated breast cancer cells
Assay type: cell-based, human
Details: MBAMB 231 treated with nocodazole, then inhibitor for 2 hours; FIG. 1B, 1C
Procedure: In addition, to confirm a phosphorylase inducing phosphorylation, after treating a breast cancer cell line MBAMB 231 with nocodazole, which is a mitosis-inducing reagent, and then with inhibitors of phosphorylases regulating mitosis for 2 hours, the reactivity of the NCAPG2 pT1010-specific antibody was confirmed.

| Structure (SMILES) | NCAPG2 pT1010 phosphospecific bands after kinase inhibition |
| --- | --- |
| O=C1NC(=NCc2cccs2)S/C1=C\c1ccc2ncccc2c1 [RO3306] | phosphospecific bands disappear |
| c1nc2nc(Nc3ccc(N4CCOCC4)cc3)nc(NC3CCCCC3)c2[nH]1 [reversine] | phosphospecific bands disappear |

Source: patent US20240279319A1, “ANTIBODY FOR IDENTIFYING PHOSPHORYLATION-SPECIFIC REACTIONS OF THREONINE AT POSITION 1010 OF NCAPG2, AND USE THEREOF” (NATIONAL CANCER CENTER, priority 2021, published 2024)
